target: Keap1 (Homo sapiens (Human), UniProt Q14145); assay: HEK293 ARE luciferase assay; type: cell-based; settings: HEK-293 ARE firefly luciferase transiently transfected cells; 18 h incubation; mean of 1 to 20 individual measurements
From the text: The purpose of this assay is to identify small molecule inhibitors of Keap1, preventing Keap1 binding to Nrf2, and thus activating the Nrf2 signalling pathway in HEK-293 ARE firefly luciferase transiently transfected cells. HEK-293 cells express wild-type Keap1 protein and therefore have low constitutive levels of Nrf2 protein and Nrf2-dependent transcription. […] When Keap1 is inhibited, Nrf2 signalling is activated, and there is an increase in luciferase expression and light emission.
Cryopreserved HEK ARE luciferase cells were rapidly thawed in a 37° C. water bath and resuspended in assay culture medium (DMEM, 10% FCS, 2 mM L-glutamine). The cell suspension was pelleted by centrifugation ([…]; 300 g) using a Heraeus benchtop centrifuge. Supernatant was removed and the pellet was gently resuspended in 5 mL culture medium per vial. Cell viability and cell number was measured using an Invitrogen Countess automated cell counter (typical viability 80%), and cells were diluted to a density of 5.0×10^5 cells/mL.
Cells were then plated out into white 384-well plates (Greiner 781080) using a Multidrop Combi, 20 μL/well, to give 10,000 cells/well. As appropriate, test compounds had been added to wells prior to dispensing cells using an Echo 555 acoustic dispenser (Labcyte). Plates were left at room temperature for ˜10 min to promote even cell settling across the plate before incubation for 18 h at 37° C., 95% humidity and 5% CO2.
After 18 h incubation, plates were removed from the incubator and allowed to cool to room temperature for 30 min, before 10 μL per well SteadyGlo reagent detection reagent was added (as per manufacturer's instructions, 10 min before required 10 mL room temperature buffer was added to one vial of lyophilised substrate and inverted several times to fully dissolve). Plates were then incubated in the dark for 30 min before reading on an Envision plate reader.
Compounds were acoustically dispensed using a Labcyte Echo, using a 10 pt dose curve with a top concentration of 100 μM. Assay wells were backfilled with DMSO to a total of 60 nL to maintain 0.3% (v/v) DMSO through the assay.
The Stimulator signal was defined using 30 μM tert-butyl hydroquinone (tBHQ) and the Neutral signal by DMSO vehicle control. All calculations were performed using GeneData.
In IBIS Column Calculations, Assay Type was set to ‘Stimulator’, and the Activity Threshold was set to 50.
The mean values were calculated from anywhere from 1 to 20 individual measurements.

Chain of Keap1 (Q14145 whole entry): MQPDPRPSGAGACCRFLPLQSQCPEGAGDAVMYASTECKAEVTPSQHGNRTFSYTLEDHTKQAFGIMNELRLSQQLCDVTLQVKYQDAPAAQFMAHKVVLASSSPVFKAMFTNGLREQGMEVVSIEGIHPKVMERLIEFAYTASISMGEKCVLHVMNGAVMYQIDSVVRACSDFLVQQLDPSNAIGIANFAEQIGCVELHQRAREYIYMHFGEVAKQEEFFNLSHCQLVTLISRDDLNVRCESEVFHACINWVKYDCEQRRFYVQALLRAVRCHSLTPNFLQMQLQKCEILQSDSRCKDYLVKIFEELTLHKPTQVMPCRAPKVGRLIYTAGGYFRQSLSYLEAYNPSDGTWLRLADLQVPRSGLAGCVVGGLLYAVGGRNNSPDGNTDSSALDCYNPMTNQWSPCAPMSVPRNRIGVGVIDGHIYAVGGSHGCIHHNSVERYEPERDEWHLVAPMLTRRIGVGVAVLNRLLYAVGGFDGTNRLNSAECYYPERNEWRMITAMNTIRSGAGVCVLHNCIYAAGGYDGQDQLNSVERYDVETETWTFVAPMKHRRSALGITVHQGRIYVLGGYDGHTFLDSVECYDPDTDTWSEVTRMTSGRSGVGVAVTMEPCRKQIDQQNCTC

| SMILES | EC50 [nM] |
| --- | --- |
| COC1(c2ncc(F)cc2-c2cncc(Cl)c2)C=C(C#N)C(=O)C(C)(C)C1 (single isomer, unassigned) [Compound 88, 3-[3-(5-chloro-3-pyridyl)-5-fluoro-2-pyridyl]-3-methoxy-5,5-dimethyl-6-oxo-cyclohexene-1-carbonitrile] | 9 |
| COC1(c2ncc(F)cc2-c2cnc(C)nc2)C=C(C#N)C(=O)C(C)(C)C1 (single isomer, unassigned) [Compound 89, 3-[5-fluoro-3-(2-methylpyrimidin-5-yl)-2-pyridyl]-3-methoxy-5,5-dimethyl-6-oxo-cyclohexene-1-carbonitrile] | 11 |
| COC1(c2ncc(F)cc2-c2ccc(C(F)(F)F)nc2)C=C(C#N)C(=O)C(C)(C)C1 (single isomer, unassigned) [Compound 90, 3-[5-fluoro-3-[6-(trifluoromethyl)-3-pyridyl]-2-pyridyl]-3-methoxy-5,5-dimethyl-6-oxo-cyclohexene-1-carbonitrile] | 11 |
| COC1(c2ncc(F)cc2-c2c(C)nn(C)c2C)C=C(C#N)C(=O)C(C)(C)C1 (single isomer, unassigned) [Compound 92, 3-[5-fluoro-3-(1,3,5-trimethylpyrazol-4-yl)-2-pyridyl]-3-methoxy-5,5-dimethyl-6-oxo-cyclohexene-1-carbonitrile] | 67 |
| COC1(c2ncc(F)cc2-c2sc(C)nc2C)C=C(C#N)C(=O)C(C)(C)C1 (single isomer, unassigned) [Compound 93, 3-[3-(2,4-dimethylthiazol-5-yl)-5-fluoro-2-pyridyl]-3-methoxy-5,5-dimethyl-6-oxo-cyclohexene-1-carbonitrile] | 5 |
| C/C=C/c1cc(F)cnc1C1(OC)C=C(C#N)C(=O)C(C)(C)C1 (single isomer, unassigned) [Compound 94, 3-{5-fluoro-3-[(1E)-prop-1-en-1-yl]pyridin-2-yl}-3-methoxy-5,5-dimethyl-6-oxocyclohex-1-ene-1-carbonitrile] | 21 |
| COC1(c2nc(C)c(Br)s2)C=C(C#N)C(=O)C(C)(C)C1 (single isomer, unassigned) [Compound 98, 3-(5-bromo-4-methyl-1,3-thiazol-2-yl)-3-methoxy-5,5-dimethyl-6-oxocyclohex-1-ene-1-carbonitrile] | 79 |
| COC1(c2nc(C)c(-c3ccccn3)s2)C=C(C#N)C(=O)C(C)(C)C1 (single isomer, unassigned) [Compound 99, 3-methoxy-5,5-dimethyl-3-[4-methyl-5-(pyridin-2-yl)-1,3-thiazol-2-yl]-6-oxocyclohex-1-ene-1-carbonitrile] | 66 |
| COC1(c2ncc(F)cc2C#CC(C)C)C=C(C#N)C(=O)C(C)(C)C1 (single isomer, unassigned) [Compound 100, 3-[5-fluoro-3-(3-methylbut-1-yn-1-yl)pyridin-2-yl]-3-methoxy-5,5-dimethyl-6-oxocyclohex-1-ene-1-carbonitrile] | 77 |
| CCCc1cccnc1C1(OC)C=C(C#N)C(=O)C(C)(C)C1 (single isomer, unassigned) [Compound 101, 3-methoxy-5,5-dimethyl-6-oxo-3-(3-propylpyridin-2-yl)cyclohex-1-ene-1-carbonitrile] | 33 |
| COC1(c2nc(C)c(-c3ccccn3)s2)C=C(C#N)C(=O)C2(CC2)C1 (single isomer, unassigned) [Compound 102, 7-methoxy-7-[4-methyl-5-(pyridin-2-yl)-1,3-thiazol-2-yl]-4-oxospiro[2.5]oct-5-ene-5-carbonitrile] | 73 |
| COC1(c2cccc(-c3cncnc3)n2)C=C(C#N)C(=O)C(C)(C)C1 (single isomer, unassigned) [Compound 104, 3-methoxy-5,5-dimethyl-6-oxo-3-(6-(pyrimidin-5-yl)pyridin-2-yl)cyclohex-1-ene-1-carbonitrile] | 45 |
| COC1(c2cccc(-c3cnn(C)c3)n2)C=C(C#N)C(=O)C(C)(C)C1 (single isomer, unassigned) [Compound 107, 3-methoxy-5,5-dimethyl-3-(6-(1-methyl-1H-pyrazol-4-yl)pyridin-2-yl)-6-oxocyclohex-1-ene-1-carbonitrile] | 37 |
| COC1(c2ncc(F)cc2-c2ccc3nc(C)cn3c2)C=C(C#N)C(=O)C(C)(C)C1 (single isomer, unassigned) [Compound 201, 3-[5-fluoro-3-(2-methylimidazo[1,2-a]pyridin-6-yl)pyridin-2-yl]-3-methoxy-5,5-dimethyl-6-oxocyclohex-1-ene-1-carbonitrile] | 182 |
| COC1(c2ncc(F)cc2-c2ccc3ccnn3c2)C=C(C#N)C(=O)C(C)(C)C1 (single isomer, unassigned) [Compound 203, 3-[5-fluoro-3-(pyrazolo[1,5-a]pyridin-6-yl)pyridin-2-yl]-3-methoxy-5,5-dimethyl-6-oxocyclohex-1-ene-1-carbonitrile] | 6 |
| COC1(c2ncc(C)cn2)C=C(C#N)C(=O)C(C)(C)C1 (single isomer, unassigned) [Compound 204, 3-methoxy-5,5-dimethyl-3-(5-methylpyrimidin-2-yl)-6-oxocyclohex-1-ene-1-carbonitrile] | 9 |
| COC1(c2ncc(F)cc2-c2cnc3c(c2)OCCN3C)C=C(C#N)C(=O)C(C)(C)C1 (single isomer, unassigned) [Compound 205, 3-[5-fluoro-3-(4-methyl-3,4-dihydro-2H-pyrido[3,2-b][1,4]oxazin-7-yl)pyridin-2-yl]-3-methoxy-5,5-dimethyl-6-oxocyclohex-1-ene-1-carbonitrile] | 52 |
| COC1(c2ncc(Cl)cc2C(F)F)C=C(C#N)C(=O)C(C)(C)C1 (single isomer, unassigned) [Compound 206, 3-[5-chloro-3-(difluoromethyl)pyridin-2-yl]-3-methoxy-5,5-dimethyl-6-oxocyclohex-1-ene-1-carbonitrile] | 159 |
| COC1(c2ncc(F)cc2-c2ccnc(S(=O)(=O)N(C)C)c2)C=C(C#N)C(=O)C(C)(C)C1 (single isomer, unassigned) [Compound 207, 2-[3-cyano-1-methoxy-5,5-dimethyl-4-oxocyclohex-2-en-1-yl]-5-fluoro-N,N-dimethyl[3,4′-bipyridine]-2′-sulfonamide] | 48 |
| COC1(c2ncc(Cl)cc2C(F)(F)F)C=C(C#N)C(=O)C(C)(C)C1 (single isomer, unassigned) [Compound 208, 3-[5-chloro-3-(trifluoromethyl)pyridin-2-yl]-3-methoxy-5,5-dimethyl-6-oxocyclohex-1-ene-1-carbonitrile] | 231 |
| COC1(c2ncc(F)cc2-c2cnnc(C)c2)C=C(C#N)C(=O)C(C)(C)C1 (single isomer, unassigned) [Compound 209, 3-[5-fluoro-3-(6-methylpyridazin-4-yl)pyridin-2-yl]-3-methoxy-5,5-dimethyl-6-oxocyclohex-1-ene-1-carbonitrile] | 15 |
| COC1(c2ncc(F)cc2-c2cnc(C(F)(F)F)nc2)C=C(C#N)C(=O)C(C)(C)C1 (single isomer, unassigned) [Compound 210, 3-{5-fluoro-3-[2-(trifluoromethyl)pyrimidin-5-yl]pyridin-2-yl}-3-methoxy-5,5-dimethyl-6-oxocyclohex-1-ene-1-carbonitrile] | 20 |
| COC1(c2ncc(C(F)(F)F)cn2)C=C(C#N)C(=O)C(C)(C)C1 (single isomer, unassigned) [Compound 211, 3-methoxy-5,5-dimethyl-6-oxo-3-[5-(trifluoromethyl)pyrimidin-2-yl]cyclohex-1-ene-1-carbonitrile] | 4 |
| COC1(c2ncc(F)cc2-c2ccc3ncnn3c2)C=C(C#N)C(=O)C(C)(C)C1 (single isomer, unassigned) [Compound 212, 3-[5-fluoro-3-([1,2,4]triazolo[1,5-a]pyridin-6-yl)pyridin-2-yl]-3-methoxy-5,5-dimethyl-6-oxocyclohex-1-ene-1-carbonitrile] | 7 |
| COC1(c2ncc(F)cc2-c2cncc(C(F)(F)F)c2)C=C(C#N)C(=O)C(C)(C)C1 (single isomer, unassigned) [Compound 215, 3-[5-fluoro-5′-(trifluoromethyl)[3,3′-bipyridin]-2-yl]-3-methoxy-5,5-dimethyl-6-oxocyclohex-1-ene-1-carbonitrile] | 15 |
| COC1(c2ncc(F)cn2)C=C(C#N)C(=O)C(C)(C)C1 (single isomer, unassigned) [Compound 216, 3-(5-fluoropyrimidin-2-yl)-3-methoxy-5,5-dimethyl-6-oxocyclohex-1-ene-1-carbonitrile] | 21 |

From patent US11479539B2, “Small molecule modulators of the BTB domain of Keap1” (MedImmune Limited, priority 2017, dated 2022)
